A short description of data set [1]: Decomposition of precursor at pH 6 and pH 8.5. The format is physicochemical. The text has this:
Based on the clean formation of hydropersulfide and aryl cyanamide during decomposition of 4d-h, the general mechanism shown in Scheme 5 is proposed. Neutralization of S-alkyl-thioisothiourea 7 (or its resonance partner 7a) occurs at pH 7.4 to produce a neutral species 8 and/or 8a, which can further undergo an elimination reaction to produce RSSH and aryl cyanamide. The elimination reaction can be initiated by either donation of the imine-nitrogen lone pair of 8 to form aryl cyanamide and RSSH (Scheme 5, eq. 2) or deprotonation of the arylamino-nitrogen proton to form RSSH and an aryl carbodiimide, which can further undergo tautomerization to afford the aryl cyanamide (Scheme 5, eq. 3). Alternately, an elimination reaction can be initiated by donation of the nitrogen lone pair of intermediate 8a to produce RSSH and aryl carbodiimide (Scheme 5, eq. 1). The decomposition of precursor 4d was examined at pH 6 and pH 8.5. […] In addition, the thermodynamic stability of the aryl cyanamide produced could contribute to the observed rate of RSSH release.

Data set [2] in a line: Kinetics of RSSH generation by 1H NMR with NEM trapping. The format is physicochemical. The note with it: 10% D2O. The protocol:
FIGS. 3a and 3b provide graphs of (a) Stacked ^1H NMR spectra showing the decomposition of precursor 4d (1 mM) with NEM (20 mM) in 10% D2O, phosphate buffer (PB), pH 7.4 at 37° C. to produce RSS-NEM adduct 5a; Precursor 4d was introduced to a solution of NEM in PB at t=0 min and following equilibration and shimming, the first 1H NMR spectrum was obtained after 6 min.; and (b) The kinetics of decomposition of 4d (circles represent the —CH3 protons (Ha) of the precursor) and formation of 5a (squares represent the diasterotopic protons (Hb) of the succinimide ring of the two product diastereomers).
Next, ^1H NMR spectroscopy was used to monitor the kinetics of RSSH generation from 4d by trapping with NEM in 10% D2O, pH 7.4 buffer containing DMSO as an internal standard at 37° C. An increase in the peak intensity attributed to one of the diasterotopic protons of the succinimide ring of the two product diastereomers (Hb, δ2.99-2.91 ppm) was observed (FIG. 3a). The other diasterotopic proton (Hc, δ3.30-3.21 ppm) overlaps with N-ethylmaleamic acid (NEMA), a product derived from NEM hydrolysis. Similarly, the intensity of two methyl group protons of precursor 4d (δ1.44 and 1.41 ppm) decreased as four methyl group protons of the two diastereomers of 5a (Ha, δ1.40, 1.37 ppm and 1.40, 1.34 ppm) increased, supporting the clean conversion of 4d to 5a. The ^1H NMR peak assignments for 5a are consistent with the RSS-NEM adduct formed during S-methoxycarbonyl penicillamine disulfide (MCPD) decomposition (Scheme 1, eq. 3) in the presence of NEM.
All starting materials were of reagent grade and used without further purification. N-acetyl-D-penicillamine, N-ethylmaleimide, N-ethylmaleamic acid, and phenylcyanamide were purchased from Sigma-Aldrich and used without further purification. Thiourea and N-substituted thioureas were purchased from Alfa Aesar and Oakwood Chemicals. Deuterated solvents (Cambridge Isotope Laboratories) were used for NMR spectroscopic analyses. NMR spectra were obtained on a 400 MHz FT-NMR spectrometer. All chemical shifts are reported in parts per million (ppm) relative to residual CHCl3 (7.26 ppm for ^1H, 77.2 ppm for ^13C), residual H2O (4.79 ppm for ^1H), residual DMSO (2.50 ppm for ^1H, 39.5 for ^13C), or residual MeOH (3.31 ppm for ^1H, 49.2 ppm for ^13C). The kinetics of RSSH generation were measured using a Varian Inova 800 MHz spectrometer. UPLC-MS analysis was carried out with a Waters Acquity/Xevo-G2 UPLC-MS system equipped with an ACQUITY UPLC BEH C18 column (2.1 mm×50 mm, 1.7 μm). The mass signals for products of hydropersulfide trapping with NEM were obtained via deconvolution using MassLynx 4.1 software. The pH measurements were performed using a Fisher Scientific Accumet AB15 pH-meter. Analytical thin layer chromatography (TLC) was performed on Sigma-Aldrich silica gel on TLC A1 foils with fluorescent indicator F254 plates. Visualization was accomplished with UV light (254 nm) or staining with KMnO4. Flash column chromatography was performed using SiliaFlash P60 (230-400 mesh) silica gel. Melting points were recorded using MEL-TEMP® capillary melting point apparatus and are uncorrected.

Values joined by “and” are separate entries in the source; they are usually repeats but may differ in a detail not shown here. Identical values can stand only once.

The compound `CC(=O)NC(C(=O)O)C(C)(C)SSC(=N)Nc1ccccc1.Cl` (stereo not shown) [Precursor 4d, ((1-acetamido-1-carboxy-2-methylpropan-2-yl)disulfaneyl)(phenylamino)methaniminium chloride] registered a melting point of 155 to 157 °C. For the same compound, in data set [1] (pH 6 (lower pH)), the decomposition rate result is listed as “substantially slowed”. Moreover, in data set [1] (pH 8.5 (higher pH)), the decomposition rate result is recorded as “increased”. Moreover, the “k, single-exponential fit of precursor decomposition and 5a formation” value in data set [2] (4d 1 mM, NEM 20 mM, phosphate buffer pH 7.4, 37° C.) turned out to be 0.12 min⁻¹. In addition, the half-life at 1 mM in data set [2] (NEM, pH 7.4 buffer, 37° C., read-out: half-life of precursor) worked out at 5.6 min. The “t1//2 (mm)” value in data set [2] (precursor 1 mM, NEM 20 mM, pH 7.4 phosphate buffer, 37° C.) amounted to 5.6 ± 0.3 min. Further, the “Hydropersulfide Yield (%) (RSS-NEM adduct)” value in data set [2] (precursor 1 mM, NEM 20 mM, pH 7.4 phosphate buffer, 37° C., based upon % precursor consumed) is 96% and 96 ± 1%.

By melting point is commonly meant the temperature, or range, at which the solid turns liquid. A word on the half-life: it is the time needed for the level to fall by half in the phase considered.

Values taken from patent publication US11926580B2, “Hydropersulfide precursors” (THE JOHNS HOPKINS UNIVERSITY, priority 2018, dated 2024).
